# Data taken from patent US8921412B2, “C-aryl ansa SGLT2 inhibitors” (Green Cross Corporation, priority 2011, dated 2014).
# Like-named read-outs stand apart in the source and are kept apart here.
# What was measured:
# human SGLT2 = human SGLT2 (Homo sapiens (Human), UniProt P31639); test: Inhibitory effects on human SGLT2 activities (14C-AMG uptake in CHO cells expressing hSGLT2); type: cell-based; details: CHO cells stably expressing hSGLT2, 37° C., 2 h
# Method: Human SGLT2 (hSGLT2) gene was amplified by PCR from cDNA-Human Adult Normal Tissue Kidney (Invitrogen). The hSGLT2 sequence was cloned into pcDNA3.1(+) for mammalian expression and were stably transfected into chinese hamster ovary (CHO) cells. SGLT2-expressing clones were selected based on resistance to G418 antibiotic (Geneticin) and activity in the ^14C-α-methyl-D-glucopyranoside (^14C-AMG) uptake assay.
# For sodium-dependent glucose transport assay, cells expressing hSGLT2 were seeded into a 96-well culture plate at a density of 5×10^4 cells/well in RPMI medium 1640 containing 10% fetal bovine serum. The cells were used 1 day after plating. They were incubated in pretreatment buffer (10 mM HEPES, 5 mM Tris, 140 mM choline chloride, 2 mM KCl, 1 mM CaCl2, and 1 mM MgCl2, pH 7.4) at 37° C. for 10 min. They were then incubated in uptake buffer (10 mM HEPES, 5 mM Tris, 140 mM NaCl, 2 mM KCl, 1 mM CaCl2, 1 mM MgCl2, and 1 mM ^14C-nonlabeled AMG pH 7.4) containing ^14C-labeled AMG (8 μM) and the inventive compound or dimethyl sulfoxide (DMSO) vehicle at 37° C. for 2 h. Cells were washed twice with washing buffer (pretreatment buffer containing 10 mM AMG at room temperature) and then the radioactivity was measured using a liquid scintillation counter. IC50 was determined by nonlinear regression analysis using GraphPad PRISM [Katsuno, K. et al. J. Pharmacol. Exp. Ther. 2007, 320, 323-330; Han, S. et al. Diabetes, 2008, 57, 1723-1729].
# [1] = not given; remark: listed apart in the source
# Chain of human SGLT2 (P31639 whole entry): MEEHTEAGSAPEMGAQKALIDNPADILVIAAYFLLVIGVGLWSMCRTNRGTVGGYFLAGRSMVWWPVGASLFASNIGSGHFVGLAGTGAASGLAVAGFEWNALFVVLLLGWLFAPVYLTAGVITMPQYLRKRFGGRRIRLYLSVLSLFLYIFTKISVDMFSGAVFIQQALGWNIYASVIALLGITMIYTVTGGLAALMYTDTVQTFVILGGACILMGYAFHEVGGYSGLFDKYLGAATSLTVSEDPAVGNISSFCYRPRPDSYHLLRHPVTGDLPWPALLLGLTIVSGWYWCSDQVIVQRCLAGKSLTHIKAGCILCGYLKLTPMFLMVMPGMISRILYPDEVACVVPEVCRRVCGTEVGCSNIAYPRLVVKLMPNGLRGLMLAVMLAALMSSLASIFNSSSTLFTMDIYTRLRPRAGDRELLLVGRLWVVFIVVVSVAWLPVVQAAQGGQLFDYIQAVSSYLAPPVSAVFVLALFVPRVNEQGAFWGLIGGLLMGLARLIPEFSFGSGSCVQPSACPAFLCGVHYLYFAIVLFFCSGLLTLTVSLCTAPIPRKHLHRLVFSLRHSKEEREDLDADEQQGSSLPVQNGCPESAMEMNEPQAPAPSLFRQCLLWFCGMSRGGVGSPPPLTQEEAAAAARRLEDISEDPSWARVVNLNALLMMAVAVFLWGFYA
SMILES,IC50 (human SGLT2) [nM],further results
CCOc1ccc(Cc2cc3c(cc2Cl)OC[C@H]2C[C@H]2COC[C@H]2O[C@@H]3[C@H](OCc3ccccc3)[C@@H](OCc3ccccc3)[C@@H]2OCc2ccccc2)cc1,–,"ring closure, isolated yield (from CCOc1ccc(Cc2cc([C@@H]3O[C@H](CO)[C@@H](OCc4ccccc4)[C@H](OCc4ccccc4)[C@H]3OCc3ccccc3)c(OC[C@H]3C[C@H]3CI)cc2Cl)cc1, ether bond, 12-membered ring, NaH, DMF, 47.0 mM, 25.0 °C): 63%; ring closure, yield of all isomers ([1]; from CCOc1ccc(Cc2cc([C@@H]3O[C@H](CO)[C@@H](OCc4ccccc4)[C@H](OCc4ccccc4)[C@H]3OCc3ccccc3)c(OC[C@H]3C[C@H]3CI)cc2Cl)cc1, ether bond, sodium hydride, N,N-dimethylformamide, 47.0 mM, 25.0 °C, 3.0 h): 63%"
"CCOc1ccc(Cc2cc3c(cc2Cl)OC[C@H]2C[C@H]2COC[C@H]2O[C@@H]3[C@H](O)[C@@H](O)[C@@H]2O)cc1 [Example 15, (4R,5S,6R,7R,8S)-11-Chloro-10-(4-ethoxybenzyl)-(1aR,14aS)-1a,2,4,5,6,7,8,9,10-octahydro-1H-4,8-epoxybenzo[g]cyclopropa[c][1,6]dioxacyclotetradecine-5,6,7-triol]",2.3,–
"CCOc1ccc(Cc2cc3c(cc2Cl)OC[C@@H]2C[C@@H]2COC[C@H]2O[C@@H]3[C@H](O)[C@@H](O)[C@@H]2O)cc1 [Example 16, (4R,5S,6R,7R,8S)-11-Chloro-10-(4-ethoxybenzyl)-(1aS,14aR)-1a,2,4,5,6,7,8,9,10-octahydro-1H-4,8-epoxybenzo[g]cyclopropa[c][1,6]dioxacyclotetradecine-5,6,7-triol]",14,–
CCOc1ccc(Cc2cc3c(cc2Cl)OCC=CCOC[C@H]2O[C@@H]3[C@H](OC(C)=O)[C@@H](OC(C)=O)[C@@H]2OC(C)=O)cc1,–,"ring closure, isolated yield (from C=CCOC[C@H]1O[C@@H](c2cc(Cc3ccc(OCC)cc3)c(Cl)cc2OCC=C)[C@H](OC(C)=O)[C@@H](OC(C)=O)[C@@H]1OC(C)=O, rcm bond, 12-membered ring, Grubbs II (20 mol%), DCM, 5.0 mM, 60.0 °C): 23%; ring closure, yield of all isomers ([1]; from C=CCOC[C@H]1O[C@@H](c2cc(Cc3ccc(OCC)cc3)c(Cl)cc2OCC=C)[C@H](OC(C)=O)[C@@H](OC(C)=O)[C@@H]1OC(C)=O, rcm bond, Grubbs 2nd generation catalyst, dichloromethane, 5.0 mM, 60.0 °C, 72.0 h): 23%"
CCOc1ccc(Cc2cc3c(cc2Cl)OCCCCCOC[C@H]2O[C@@H]3[C@H](OCc3ccccc3)[C@@H](OCc3ccccc3)[C@@H]2OCc2ccccc2)cc1,–,"ring closure, isolated yield (from CCOc1ccc(Cc2cc([C@@H]3O[C@H](COCCCCCI)[C@@H](OCc4ccccc4)[C@H](OCc4ccccc4)[C@H]3OCc3ccccc3)c(O)cc2Cl)cc1, ether bond, 13-membered ring, K2CO3/18-crown-6, toluene, 10.0 mM, 25.0 °C): 64%; ring closure, yield of all isomers ([1]; from CCOc1ccc(Cc2cc([C@@H]3O[C@H](COCCCCCI)[C@@H](OCc4ccccc4)[C@H](OCc4ccccc4)[C@H]3OCc3ccccc3)c(O)cc2Cl)cc1, ether bond, potassium carbonate / 18-crown-6, toluene, 10.0 mM, 25.0 °C, 16.0 h): 64%"
"CCOc1ccc(Cc2cc3c(cc2Cl)OCCCCCCOC[C@H]2O[C@@H]3[C@H](O)[C@@H](O)[C@@H]2O)cc1 [Example 6, (10R,11S,12R,13R,14S)-17-Chloro-16-(4-ethoxybenzyl)-2,3,4,5,6,7,9,10,11,12,13,14-dodecahydro-10,14-epoxybenzo[i][1,8]dioxacyclohexadecine-11,12,13-triol]",3.63,–
CCOc1ccc(Cc2cc3c(cc2Cl)OCC=CCOC[C@H]2O[C@@H]3[C@H](OCc3ccccc3)[C@@H](OCc3ccccc3)[C@@H]2OCc2ccccc2)cc1,–,"ring closure, isolated yield (from C=CCOC[C@H]1O[C@@H](c2cc(Cc3ccc(OCC)cc3)c(Cl)cc2OCC=C)[C@H](OCc2ccccc2)[C@@H](OCc2ccccc2)[C@@H]1OCc1ccccc1, rcm bond, 12-membered ring, Grubbs II (11 mol%), DCM, 9.6 mM, 60.0 °C): 26%; ring closure, yield of all isomers ([1]; from C=CCOC[C@H]1O[C@@H](c2cc(Cc3ccc(OCC)cc3)c(Cl)cc2OCC=C)[C@H](OCc2ccccc2)[C@@H](OCc2ccccc2)[C@@H]1OCc1ccccc1, rcm bond, Grubbs 2nd generation catalyst, dichloromethane, 9.6 mM, 60.0 °C, 16.0 h): 26%"
"O[C@@H]1[C@@H](O)[C@H]2O[C@H](COCCCCOc3cc(Cl)c(Cc4ccc5c(c4)OCCO5)cc32)[C@H]1O [Example 13, (8R,9S,10R,11R,12S)-15-Chloro-14-((2,3-dihydrobenzo[b][1,4]dioxin-6-yl)-methyl)-2,3,4,5,7,8,9,10,11,12-decahydro-8,12-epoxybenzo[g][1,6]dioxacyclotetradecine-9,10,11-triol]",3.65,–
"CCOc1ccc(Cc2cc3c(cc2Cl)OCCCCOC[C@H]2O[C@@H]3[C@H](O)[C@@H](O)[C@@H]2O)cc1 [Example 2, (8R,9S,10R,11R,12S)-15-Chloro-14-(4-ethoxybenzyl)-2,3,4,5,7,8,9,10,11,12-decahydro-2H-8,12-epoxybenzo[g][1,6]dioxacyclotetradecine-9,10,11-triol]",2.27,–

# Continued, in another order:
IC50 (human SGLT2) [nM],SMILES,further results
1.4,"CCc1ccc(Cc2cc3c(cc2Cl)OCCCCCCOC[C@H]2O[C@@H]3[C@H](O)[C@@H](O)[C@@H]2O)cc1 [Example 10, (10R,11S,12R,13R,14S)-17-Chloro-16-(4-ethylbenzyl)-2,3,4,5,6,7,9,10,11,12,13,14-dodecahydro-10,14-epoxybenzo[i][1,8]dioxacyclohexadecine-11,12,13-triol]",–
1.38,"O[C@@H]1[C@@H](O)[C@H]2O[C@H](COCCCCCOc3cc(Cl)c(Cc4ccc5c(c4)OCCO5)cc32)[C@H]1O [Example 14, (9R,10S,11R,12R,13S)-16-Chloro-15-((2,3-dihydrobenzo[b][1,4]dioxin-6-yl)-methyl)-3,4,5,6,8,9,10,11,12,13-decahydro-2H-9,13-epoxybenzo[h][1,7]dioxacyclopentadecine-10,11,12-triol]",–
1.35,"CSc1ccc(Cc2cc3c(cc2Cl)OCCCCOC[C@H]2O[C@@H]3[C@H](O)[C@@H](O)[C@@H]2O)cc1 [Example 11, (8R,9S,10R,11R,12S)-15-Chloro-14-(4-(methylthio)benzyl)-2,3,4,5,7,8,9,10,11,12-decahydro-8,12-epoxybenzo[g][1,6]dioxacyclotetradecine-9,10,11-triol]",–
1.4,"CCc1ccc(Cc2cc3c(cc2Cl)OCCCCOC[C@H]2O[C@@H]3[C@H](O)[C@@H](O)[C@@H]2O)cc1 [Example 8, (8R,9S,10R,11R,12S)-15-Chloro-14-(4-ethylbenzyl)-2,3,4,5,7,8,9,10,11,12-decahydro-8,12-epoxybenzo[g][1,6]dioxacyclotetradecine-9,10,11-triol]",–
0.974,"CCOc1ccc(Cc2cc3c(cc2Cl)OC/C=C\COC[C@H]2O[C@@H]3[C@H](O)[C@@H](O)[C@@H]2O)cc1 [Example 1, (8R,9S,10R,11R,12S)-15-Chloro-14-(4-ethoxybenzyl)-2,5,7,8,9,10,11,12-octahydro-2H-8,12-epoxybenzo[g][1,6]dioxacyclotetradecine-9,10,11-triol]",–
0.778,"CSc1ccc(Cc2cc3c(cc2Cl)OCCCCCOC[C@H]2O[C@@H]3[C@H](O)[C@@H](O)[C@@H]2O)cc1 [Example 12, (9R,10S,11R,12R,13S)-16-Chloro-15-(4-(methylthio)benzyl)-3,4,5,6,8,9,10,11,12,13-decahydro-2H-9,13-epoxybenzo[h][1,7]dioxacyclopentadecine-10,11,12-triol]",–
1.38,"CCc1ccc(Cc2cc3c(cc2Cl)OCCCCCOC[C@H]2O[C@@H]3[C@H](O)[C@@H](O)[C@@H]2O)cc1 [Example 9, (9R,10S,11R,12R,13S)-16-Chloro-15-(4-ethylbenzyl)-3,4,5,6,8,9,10,11,12,13-decahydro-2H-9,13-epoxybenzo[h][1,7]dioxacyclopentadecine-10,11,12-triol]",–
0.899,"CCOc1ccc(Cc2cc3c(cc2Cl)OCCCCCOC[C@H]2O[C@@H]3[C@H](O)[C@@H](O)[C@@H]2O)cc1 [Example 3, (9R,10S,11R,12R,13S)-16-Chloro-15-(4-ethoxybenzyl)-3,4,5,6,8,9,10,11,12,13-decahydro-2H-9,13-epoxybenzo[h][1,7]dioxacyclopentadecine-10,11,12-triol]",–
